Two molecules from US10098962B2, “Glycosaminoglycan derivative and method for producing same” (Seikagaku Corporation, priority 2013, dated 2018) can be followed below.

For data set [1] the following is noted: rat, in vivo, inhaled or intranasal.
Description: As a system for test, BN/CrlCrlj rat (Charles River Laboratories International, Inc., 5-week old) was used.
For administration of each test substance, the test system was fixed dorsally under general anesthesia, and by using a sonde for intratracheal administration (MicroSprayer® Aerosolizer Model IA-1B, manufactured by Penn-Century), intratracheal administration was performed with volume of 100 μL. As general anesthesia, inhalation of isoflurane (Forane (registered trade mark), Dainippon Pharmaceutical Co., Ltd., concentration of 3.0%, flow rate of 2.0 L/min) filled in a small animal anesthetizer (TK-4, manufactured by BioMachinery Co., Ltd.) was used.
At Hour 4, 24, 48, 72 and 168 after administration of a test substance, the pulmonary tissue was collected by using scissors and forceps under pentobarbital anesthesia. Meanwhile, three samples were taken for each evaluation time point. […]
Each parameter of drug kinetics was calculated from a change in average content in pulmonary tissue. If there was an animal showing the measurement value of less than lower limit of quantification (<10 ng/g), the average content in pulmonary tissue was calculated by having the value of 0 (zero) for it. The time t (hr) for calculating AUC0-t was the final time point at which the quantification can be made. […]
The subject of data set [2] is rat model of muscle pain disorder caused by carrageenan. In words: Effect of diclofenac coupled chondroitin sulfate in rat model of muscle pain disorder caused by carrageenan, 7 days (Test Example B8). It counts as in vivo.
Description: The followings were prepared as a test substance in which PBS is used as a solvent.
As an inflammatory agent, 10 mg/mL carrageenan solution was used. As general anesthesia, inhalation of isoflurane (concentration of 3.0%, flow rate of 2.0 L/min) filled in a small animal anesthetizer (TK-4, manufactured by BioMachinery Co., Ltd.) was used.
A rat (Crj: SD line (SPF), male, 9-week old) was fixed dorsally under general anesthesia, and a broad region around the left gastrocnemius muscle was shaved using a shaver. The area for injection was sprayed with 70% alcohol for sterilization, and by using an injection tube applied with needle for subcutaneous insulin administration (MYJECTOR (registered trade mark), TERUMO CORPORATION), the test solution was injected (volume of 100 μL/site) for intramuscular administration into the left gastrocnemius muscle of a rat.
7 Days after administering the test substance, each group was administered with 10 mg/mL carrageenan solution. As for the administration method, like the test substance, under inhalation of isoflurane, the region around the gastrocnemius muscle was sprayed with 70% alcohol for sterilization, and by using an injection tube applied with 29 G needle for subcutaneous insulin administration, it was injected (volume of 100 μL/site) for intramuscular administration into the left gastrocnemius muscle of a rat. […]
Data set [3] has as its system rat model of muscle pain disorder caused by silver nitrate. Description: Effect of NSAID coupled chondroitin sulfates in rat model of muscle pain induced by silver nitrate (Test Example B3). It counts as in vivo. As to conditions: i.m. 100 μL/site, 1% DF-CS or 5% other conjugates in PBS, 24, 48, 72 h after administration. The protocol: As an inflammatory agent, 0.1 mol/L silver nitrate solution was filtered through a 0.22 μm filter and used. […] Accordingly, a rat model of muscle pain disorder caused by silver nitrate was prepared. […] Furthermore, *** and * represent, in the parametric Tukey test, ***p<0.001 and *p<0.05 (vs Control), respectively. Score 0: Normal Score 1: Mild claudication Score 2: Severe claudication Score 3: Walking on three legs […] The length of move of the weight at which a pain-related behavior like avoidance is shown was read to one decimal place. This operation was repeated three times in total, and the median value was taken as the muscle pressure pain threshold. […] Furthermore, *** and * represent, in the parametric Tukey test, ***p<0.001 and *p<0.05 (vs Control), respectively.

With `C[C@H]1C[C@H]2[C@@H]3CCC4=CC(=O)C=C[C@]4(C)[C@@]3(F)[C@@H](O)C[C@]2(C)[C@@]1(O)C(=O)CO` [Betamethasone], in data set [1], the AUC0-t turned out to be 21371 ng·h/g and the “AUC0-∞” value was found to be 21797 ng·h/g.

As for “diclofenac-(2-aminoethanol)-chondroitin sulfate [DF-CS]”, the “muscle pressure pain threshold value vs control group” value in data set [2] (1% (w/v) i.m. 7 days before carrageenan, measured 3 h after carrageenan, FIG. 11) is given as “increased in a significant sense”; in data set [3] (FIG. 4), “increased in a significant sense”. For the same molecule, the “duration of analgesic effect” value in data set [2] (1% (w/v), intramuscular administration) is listed as 7 days. The “pain score vs control group” value in data set [3] (FIG. 3) is on record as “improved in a significant sense”.
